Assay results reported in patent US20240425891A1, “Host cells and methods for improved polyketide production using methylmalonyl-CoA-dependent polyketide synthase (PKS)” (THE REGENTS OF THE UNIVERSITY OF CALIFORNIA, priority 2023, published 2024).

Experiments:
[1] = test system: C. glutamicum Cz034; experiment: Propionate tolerance of Cz034 in CGXII minimal medium (growth curve); type: cell-based, Corynebacterium glutamicum
Protocol: Propionate tolerance was first evaluated using Cz034 in CGXII minimal medium to evaluate the highest propionate concentration for ALE. The lag phase increased as the propionate concentration increased, and no growth was observed when the propionate concentration was over 8,000 mg/L (Extended Data FIG. S11a, b). Then, ALE was applied to improve propionate tolerance and germicidin production in Cz12 by repeatedly growing the strains in increasing concentrations of propionate until we reached 8,000 mg/L (Extended Data FIG. S12). After two months of evolution, 563 single colonies were picked up from plates. Most of them grew faster than the initial strain (Extended Data FIG. S13a, b, c, d). […] To clarify whether the increased germicidin production improved methylmalonyl-CoA utilization, germicidin titer was measured on evolved strains.
Colony PCR. Pick up colonies from plate and cultivate in BHI medium (30° C., 200 rpm) overnight (around 14-16 h). Prepare digestion solution (120 μL zymolase (E1005, ZYMO RESEARCH) and 2500 μL PBS pH=7.2) for 96 reactions. Take 3-5 μL overnight culture into 20 μL digestion solution, 30° C. for 1 h. Add 3-5 μL dimethyl sulfoxide (DMSO), then 98° C. for 10 min. Take 2 μL for 50 μL PCR reaction. Growth curve measurement. Various cells were pre-cultivated in BHI liquid medium (30° C., 200 rpm) overnight. […] Growth curve was measured by SpectraMaX M2e at 30° C.

[2] = target: T1, hexokinase (HK2) (Homo sapiens, UniProt P52789); conditions: literature reference 36; cited from earlier work
T1 sequence (P52789 1-917): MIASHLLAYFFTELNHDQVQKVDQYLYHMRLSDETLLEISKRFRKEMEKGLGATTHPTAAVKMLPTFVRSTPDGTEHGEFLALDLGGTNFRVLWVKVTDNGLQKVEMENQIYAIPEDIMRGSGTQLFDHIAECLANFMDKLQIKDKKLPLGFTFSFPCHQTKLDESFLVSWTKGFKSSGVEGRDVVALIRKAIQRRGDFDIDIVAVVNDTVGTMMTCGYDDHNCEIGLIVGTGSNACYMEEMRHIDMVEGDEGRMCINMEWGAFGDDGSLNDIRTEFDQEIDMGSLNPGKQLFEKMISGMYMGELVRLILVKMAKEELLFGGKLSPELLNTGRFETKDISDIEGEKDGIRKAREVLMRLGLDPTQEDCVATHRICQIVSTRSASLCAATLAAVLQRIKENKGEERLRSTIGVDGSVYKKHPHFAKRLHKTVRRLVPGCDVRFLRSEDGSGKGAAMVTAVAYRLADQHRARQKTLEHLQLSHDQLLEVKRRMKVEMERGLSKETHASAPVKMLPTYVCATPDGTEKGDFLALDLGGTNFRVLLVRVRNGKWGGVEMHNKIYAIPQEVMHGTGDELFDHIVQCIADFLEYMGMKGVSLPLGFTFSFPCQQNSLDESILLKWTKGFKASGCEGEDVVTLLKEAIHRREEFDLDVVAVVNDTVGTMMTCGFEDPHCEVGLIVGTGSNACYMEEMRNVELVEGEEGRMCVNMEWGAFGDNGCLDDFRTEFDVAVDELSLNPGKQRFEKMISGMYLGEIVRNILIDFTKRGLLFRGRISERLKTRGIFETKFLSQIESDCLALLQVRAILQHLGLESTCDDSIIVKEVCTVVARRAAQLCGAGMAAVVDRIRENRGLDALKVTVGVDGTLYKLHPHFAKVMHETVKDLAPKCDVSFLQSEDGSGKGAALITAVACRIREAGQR

Row | Compound | propionate concentration above which no growth was observed [1] | IC50 on hexokinase (HK2) [2] [mg/L]
1 | CCC(=O)O [propionate] | over 8,000 mg/L | –
2 | germicidin | – | 780
